# Assay results taken from ChEMBL document CHEMBL5033989, “Nor-abietane Diterpenoids from Perovskia abrotanoides Roots with Anti-inflammatory Potential” (J Nat Prod, 2021).
# Active and inactive are the calls of the source. The rule behind the calls is not given here.
# Legend:
# [1] = tested on: J774.A1; experiment: Inhibition of LPS-induced NO release in mouse J774.A1 cells at 12.5 to 50 uM when treated with compound and LPS simultaneously measured after 24 hrs by Griess reagent based assay relative to control; assay type: functional, cell-based; details: dose 12.5-50 µM
# [2] = tested on: J774.A1; experiment: Cytotoxicity against mouse J774.A1 cells assessed as antiproliferative activity at 12.5 to 50 uM incubated for 24 hrs by MTT assay relative to control; assay type: cell-based; details: j774.a1, 24 h, dose 12.5-50 µM
# [3] = tested on: J774.A1; experiment: Inhibition of iNOS expression in LPS-stimulated mouse J774.A1 cells at 12.5 to 50 uM measured after […] by flow cytometry analysis relative to control; assay type: functional, cell-based; details: dose 12.5-50 µM
# [4] = tested on: J774.A1; experiment: Cytotoxicity against mouse J774.A1 cells assessed as antiproliferative activity at 200 uM incubated for 24 hrs by MTT assay relative to control; assay type: cell-based; details: j774.a1, 24 h
# [5] = tested on: J774.A1; experiment: Inhibition of LPS-induced NO release in mouse J774.A1 cells at 5 uM when treated with compound and LPS simultaneously measured after 24 hrs by Griess reagent based assay relative to control; assay type: functional; set-up: scale not given: the % may be the effect or the level left
Structure (SMILES),Activity [1],Activity [2],Activity [3],Activity [4] [%],Activity [5] [%]
CC(C)c1cc2ccc3c(c2c(O)c1O)C=CC(=O)C3(C)C,Active,Non-Toxic,Active,–,–
Cc1cc2c(cc1O)[C@@]13CCC(=O)C(C)(C)[C@@H]1C[C@@H]2OC3,Active,Non-Toxic,Active,–,–
CC1(C)CCC[C@@]23CO[C@@H](C[C@@H]12)c1cc(O)c(O)cc13,–,Toxic,–,–,–
CC1=C[C@@]2(O)CC[C@H]3C(C)(C)CCC[C@]3(CO)C2=CC1=O,–,Toxic,–,–,–
CC1=C[C@]2(O)CC[C@H]3C(C)(C)CCC[C@@]3(O)C2=CC1=O,Active,Non-Toxic,Active,–,–
Cc1cc2c(cc1O)[C@@]13CCCC(C)(C)[C@@H]1[C@H](OC3)[C@@H]2O,–,Toxic,–,–,–
Sc1ncnc2nc[nH]c12 [MERCAPTOPURINE ANHYDROUS],–,–,–,27.86,–
COC(=O)[C@@H](N)CCCNC(=N)N[N+](=O)[O-].Cl,–,–,–,–,57
CC(CO)C1=C(O)C(=O)c2c(ccc3c2[C@H](O)CCC3(C)C)C1=O (stereo not given in full),Active,Non-Toxic,Active,–,–
Cc1cc2c(cc1O)C[C@]1(O)CCCC(C)(C)[C@@H]1CC2,Active,Non-Toxic,Active,–,–
